Test results as given in patent publication US8357117B2, “Device and method for delivering an agent into breast milk while breastfeeding” (Family Health International, priority 2008, dated 2013).

Assay: release of SDS from dried SDS-dipped non-woven disk in 10 ml syringe, water gravity fed
Type: physicochemical
Conditions: non-woven dipped in 20% SDS solution, 3 mm thick disk, no excipients
Text: It was an unexpected result that, without the use of any excipients, a non-woven material could be dipped into an SDS solution to achieve significant loading and release of SDS. Specifically, a piece of soft non-woven material was dipped in a 20% solution of SDS, then dried on a drying rack. After drying, the material was hard and stiff, and felt like a piece of cardboard. It appeared unlikely that the resulting material would even be permeable to water.

release of SDS into water: rapidly released
SMILES: CCCCCCCCCCCCOS(=O)(=O)[O-].[Na+] [SDS, sodium dodecyl sulphate]
